From US10919941B2, “Functional lipid constructs” (KODE BIOTECH LIMITED, priority 2007, dated 2021)
No end group written: not given here.

Columns and labels:
Type in all cases: cell-based, human
[1] = tested on: sera reactive with modified RBCs; assay: Neutralisation of reactive sera with free peptide, retested against modified RBCs (BioVue); parameters: key: 0 or ‘−’ no agglutination; 0 or ‘−’ no agglutination; 1+ or 3=very weak agglutination; 1+ or 3=very weak agglutination; 2+ or 5=weak agglutination; 2+ or 5=weak agglutination; 3+ or 8=moderate strong agglutination; 3+ or 8=moderate strong agglutination; 4+ or 10/12=strong agglutination; 4+ or 10/12=strong agglutination; 4+ or 10/12=strong agglutination; details: 40 μl plasma + 10 μl neutraliser 1.0 mg/ml, 30 minutes 37° C.
Text: Optionally, where F is a peptide, the method includes the preliminary step of: • Adding an amount of the peptide to the sample of the serum; where the amount of the peptide is sufficient to neutralize non-specific agglutination or confirm specificity of the reactive antibody.

[2] = tested on: Miltenberger antibody positive sera; assay: BioVue AHG card column agglutination serology of modified red blood cells; parameters: key: 0 or ‘−’ no agglutination; 0 or ‘−’ no agglutination; 1+ or 3=very weak agglutination; 1+ or 3=very weak agglutination; 2+ or 5=weak agglutination; 2+ or 5=weak agglutination; 3+ or 8=moderate strong agglutination; 3+ or 8=moderate strong agglutination; 4+ or 10/12=strong agglutination; 4+ or 10/12=strong agglutination; 4+ or 10/12=strong agglutination; details: construct 50 μg/ml
Protocol: Red blood cells are modified by mixing 1 part by volume of washed packed red blood cells with 1 part by volume of peptide-lipid construct dispersed at a concentration of 10 to 1000 pg/ml in cell media (Celpresol™).
The suspensions are either: • 1. incubated for 2 hours at 37° C. before being washed and suspended in a cell medium for serological analysis at a concentration of 0.8 to 3% (Method 1); or • 2. incubated for 3 to 4 hours at room temperature (circa 25° C.) followed by 18 hours at 4° C. before being washed and suspended in a cell medium for serological analysis at a concentration of 0.8 to 3% (Method 2).
Serological reactions are graded or scored by either of two established systems (0 or ‘−’ no agglutination, 1+ or 3=very weak agglutination, 2+ or 5=weak agglutination, 3+ or 8=moderate strong agglutination, 4+ or 10/12=strong agglutination)
Serological platforms used are Tube (addition of reagents and reactants into plastic or glass serology tubes and after appropriate incubations, washing and centrifugation observing reactions macroscopically by eye and a 10× magnification eyepiece and scoring) and BioVue™ (addition of reactants into cassettes containing beads (including some reactants) and after appropriate incubations and centrifugation observing the reaction patterns trapped within the Gel matrix). BioVue is the serological column agglutination platform of Ortho-Clinical Diagnostics. Diamed is the serological column agglutination platform of Diamed AG.

[3] = tested on: antibody negative serums; assay: False positive reactions of modified RBCs with antibody negative serums/plasma; parameters: key to Reaction score BioVue AHG, PAC samples 1-46, 49, 50, 52, 53 / Reaction score BioVue AHG, PAC sample 47 / Reaction score BioVue AHG, PAC sample 48 / Reaction score BioVue AHG, PAC sample 51 / agglutination score, T series serum 2 / agglutination score, T series serum 42 / agglutination score, T series serum 63 / agglutination score, T series serum 62 / agglutination score, T series serum 7 / agglutination score, T series serum 20 / agglutination score, T series serum 48 / agglutination score, T series serum 22 / agglutination score, T series serum 39 / agglutination score, T series serum 23 / agglutination score, T series serum 30 / agglutination score, T series serum 4 / agglutination score, T series serum 31 / agglutination score, T series serum 44 / agglutination score, T series serum 61 / agglutination score, T series serum 18 / agglutination score, T series serum 21 / agglutination score, T series serum 28 / agglutination score, T series serum 55 / agglutination score, false positive serum T18 / agglutination score, false positive serum T21 / agglutination score, false positive serum T28 / agglutination score, false positive serum T55 / agglutination score, false positive serum T78 / agglutination score, false positive serum T92: 0 or ‘−’ no agglutination; 0 or ‘−’ no agglutination; 1+ or 3=very weak agglutination; 1+ or 3=very weak agglutination; 2+ or 5=weak agglutination; 2+ or 5=weak agglutination; 3+ or 8=moderate strong agglutination; 3+ or 8=moderate strong agglutination; 4+ or 10/12=strong agglutination; 4+ or 10/12=strong agglutination; 4+ or 10/12=strong agglutination
[4] = head: cells modified with the peptide-lipid construct M22 (title: M28)
[5] = blood donor plasma, construct 50 μg/ml (2 hours, 37° C.)

Row | Substance | Post-neutralisation serology, PAC74 ([1]; cells modified with M22) | Post-neutralisation serology, TAP1 ([1]; cells modified with M22) | Post-neutralisation serology, TAP2 [1, 4] | BioVue score vs TAP1 [2] | BioVue score vs positive sample 2 T217 (T) [2] | BioVue score vs positive sample 3 T165 (Mur) [2] | BioVue score vs positive sample 4 T7202 (M) [2] | BioVue score vs positive sample 8 T5896 (M + K + Mur) [2] | Post-neutralisation serology, PAC70 [1, 4] | Reaction score BioVue AHG, PAC sample 47 [3, 5] | Reaction score BioVue AHG, PAC sample 48 [3, 5] | Reaction score BioVue AHG, PAC sample 51 [3, 5] | Reaction score BioVue AHG, PAC samples 1-46, 49, 50, 52, 53 [3, 5] | % False Positives ([3]; panel of blood donor plasma samples (PAC), BioVue AHG, construct 50 μg/ml) [%]
1 | M28 peptide (TYPAHTANEC) | 8 | 8 | 8 |  |  |  |  |  |  |  |  |  |  | 
2 | M41: DOPE peptide-lipid construct: Hil peptide ETGETGQLVH, leader c, spacer CMG(2) (ETGETGQLVHC; also: DOPE peptide-lipid construct via leader Cys, spacer CMG(2)) |  |  |  | 0 | 0 | 0 | 0 | 0 |  |  |  |  |  | 
3 | M22 peptide (SQTNDKHKRDC) | 8 |  | 3 |  |  |  |  |  | 8 |  |  |  |  | 
4 | M40: DOPE peptide-lipid construct: Hil peptide EEETGETGQL, leader c, spacer CMG(2) (EEETGETGQLC; also: DOPE peptide-lipid construct via leader Cys, spacer CMG(2)) |  |  |  | 0 | 0 | 0 | 0 | 0 |  | 0 | 0 | 0 | 0 | 0
